Target: T1, ULK1 (Homo sapiens, UniProt O75385)
T1 sequence (O75385 1-1050): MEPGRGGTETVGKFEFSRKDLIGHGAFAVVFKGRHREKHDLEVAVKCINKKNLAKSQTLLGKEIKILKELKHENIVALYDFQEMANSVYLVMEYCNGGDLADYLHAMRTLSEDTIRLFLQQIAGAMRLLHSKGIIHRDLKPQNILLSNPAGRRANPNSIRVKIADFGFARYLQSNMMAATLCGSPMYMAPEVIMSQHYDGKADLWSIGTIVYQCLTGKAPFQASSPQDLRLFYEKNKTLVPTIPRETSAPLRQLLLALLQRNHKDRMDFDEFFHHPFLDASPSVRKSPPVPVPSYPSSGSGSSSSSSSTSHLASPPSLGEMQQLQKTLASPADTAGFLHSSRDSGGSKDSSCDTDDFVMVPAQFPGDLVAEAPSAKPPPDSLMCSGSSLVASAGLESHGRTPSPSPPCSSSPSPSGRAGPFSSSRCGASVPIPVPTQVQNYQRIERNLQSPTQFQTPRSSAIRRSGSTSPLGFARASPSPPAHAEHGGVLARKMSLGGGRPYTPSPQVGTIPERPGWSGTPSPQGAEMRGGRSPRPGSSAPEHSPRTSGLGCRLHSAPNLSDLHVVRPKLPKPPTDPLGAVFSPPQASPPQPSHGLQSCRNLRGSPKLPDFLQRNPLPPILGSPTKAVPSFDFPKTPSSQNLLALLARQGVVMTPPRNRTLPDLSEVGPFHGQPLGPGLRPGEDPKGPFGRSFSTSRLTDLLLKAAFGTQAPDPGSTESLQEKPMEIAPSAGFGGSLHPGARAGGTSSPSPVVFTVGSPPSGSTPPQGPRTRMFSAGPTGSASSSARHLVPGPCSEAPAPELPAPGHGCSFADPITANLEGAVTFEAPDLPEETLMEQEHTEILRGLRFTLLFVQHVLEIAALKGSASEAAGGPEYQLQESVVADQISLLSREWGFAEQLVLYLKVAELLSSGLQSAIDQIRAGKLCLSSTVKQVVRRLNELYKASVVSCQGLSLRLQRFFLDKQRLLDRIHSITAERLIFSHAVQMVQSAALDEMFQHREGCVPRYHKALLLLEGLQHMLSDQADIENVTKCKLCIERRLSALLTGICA
Assay: ULK1 inhibition assay
Type: biochemical
Conditions: * = tested as a mixture of regioisomers

Structure (SMILES)	IC50 [nM]
CC1(Nc2nc(Nc3ccc4c(c3)CCC(=O)N4)ncc2C(F)(F)F)COC1 [Compound 220a]	> 2000
CN(C)c1nc(Nc2ccc3c(c2)CCC(=O)N3)ncc1C(F)(F)F [Compound 220b]	< 200
COCC(C)(CN(C)C)Nc1nc(Nc2ccc3c(c2)CCC(=O)N3)ncc1C(F)(F)F (stereo not shown) [Compound 220c]	> 2000
FC(F)(F)c1cnc(Nc2ccnnc2)nc1NC1CC1 [Compound 221a]	< 200
c1cc(NC2CC2)nc(Nc2ccc3c(c2)OCCO3)n1 [Compound 224]	> 2000
O=C1CCc2cc(Nc3ncnc(NC4CC4)n3)ccc2N1 [Compound 225]	> 2000
COC(=O)[C@@H]1CCCN1c1nc(Nc2ccc3c(c2)CCC(=O)N3)ncc1C(F)(F)F [Compound 227]	200 to 2000
FC(F)(F)c1cnc(N2CCCC2c2cccnc2)nc1NC1CC1 (stereo not shown) [Compound 228]	> 2000
O=C1CCc2cc(Nc3ncc(C(F)(F)F)c(OC4COC4)n3)ccc2N1 [Compound 231a]	< 200
O=C1CCc2cc(Nc3ncc(C(F)(F)F)c(O)n3)ccc2N1 [Compound 231b]	> 2000
O=c1[nH]c2ccc(Nc3nccc(NC4CC4)n3)cc2[nH]1 [Compound 232]	> 2000
O=c1[nH]c2ccc(Nc3ncc(Br)c(Nc4ccc5[nH]c(=O)[nH]c5c4)n3)cc2[nH]1 [Compound 233]	< 200
CNC(=O)c1ccccc1Oc1nc(Nc2cc(OC)c(OC)c(OC)c2)ncc1Cl [Compound 234a]	> 2000
COc1cc(Nc2ncc(Cl)c(N(C)C(=O)c3ccccc3O)n2)cc(OC)c1OC [Compound 234b]	200 to 2000
O=c1[nH]c2ccc(Nc3ncc(Br)c(NC4CC4)n3)cc2[nH]1 [Compound 236]	< 200
CNS(=O)(=O)c1ccccc1Nc1nc(Nc2cc(OC)c(OC)c(OC)c2)ncc1Br [Compound 237]	200 to 2000
CNC(=O)c1ccccc1Oc1ccnc(Nc2cc(OC)c(OC)c(OC)c2)n1 [Compound 239]	> 2000
O=C1Cc2cc(Nc3ncc(C(F)(F)F)c(NC4CC4)n3)ccc2N1 [Compound 240]	< 200
CNC(=O)c1cccc(Oc2nc(Nc3cc(OC)c(OC)c(OC)c3)ncc2Br)c1 [Compound 242]	200 to 2000
COc1cc(Nc2ncc(Br)c(Oc3ccccc3C(=O)N(C)C)n2)cc(OC)c1OC [Compound 245]	< 200
Oc1ccc(CCNc2ncc(C(F)(F)F)c(NC3CC3)n2)cc1 [Compound 246]	200 to 2000
C[C@@H]1COCCN1c1nc(Nc2ccc3c(c2)CCC(=O)N3)ncc1C(F)(F)F [Compound 247]	< 200
COc1cc(Nc2ncc(Br)c(Oc3ccccc3C(N)=O)n2)cc(OC)c1OC [Compound 249]	< 200
CNC(=O)c1cccc(OC)c1Oc1nc(Nc2cc(OC)c(OC)c(OC)c2)ncc1Br [Compound 252]	< 200
COc1cc(Nc2ncc(Br)c(Oc3ccccc3NC(C)=O)n2)cc(OC)c1OC [Compound 254a]	< 200

Structure (SMILES)	IC50 [nM]
COc1cc(Nc2ncc(Br)c(Oc3ccccc3N)n2)cc(OC)c1OC [Compound 254b]	< 200
CNC(=O)c1c(O)cccc1Oc1nc(Nc2cc(OC)c(OC)c(OC)c2)ncc1Br [Compound 257]	< 200
FC1(F)Oc2ccc(Nc3ncc(C(F)(F)F)c(NC4CC4)n3)cc2O1 [Compound 258]	> 2000
CCC(=O)c1ccccc1Oc1nc(Nc2cc(OC)c(OC)c(OC)c2)ncc1Br [Compound 260]	< 200
O=C1CCc2cc(Nc3ncc(C(F)(F)F)c(OCCNC(=O)OCc4ccccc4)n3)ccc2N1 [Compound 261]	> 2000
FC(F)(F)c1cnc(NCc2cccc3ccccc23)nc1NC1CC1 [Compound 262]	> 2000
O=C1CCc2cc(Nc3nc(NC4CC4)c4ccccc4n3)ccc2N1 [Compound 263]	> 2000
FC(F)(F)c1cnc(Nc2ccc3ncccc3c2)nc1NC1CC1 [Compound 264]	< 200
COc1cc(Nc2ncc(Br)c(Oc3ccccc3)n2)cc(OC)c1OC [Compound 266]	< 200
CNC(=O)c1cccc(Oc2nc(Nc3ccc4c(c3)CCC(=O)N4)ncc2Br)c1 [Compound 268]	200 to 2000
COc1cc(Nc2ncc(Br)c(Oc3ccccc3C(=O)NC3CC3)n2)cc(OC)c1OC [Compound 270]	200 to 2000
O=C1CCc2cc(Nc3ncc(C(F)(F)F)c(Nc4cc(C5CCC5)[nH]n4)n3)ccc2N1 [Compound 271]	< 200
COCc1ccccc1Oc1nc(Nc2cc(OC)c(OC)c(OC)c2)ncc1Br [Compound 274]	< 200
FC(F)(F)c1cnc(Nc2cnc3ccccc3c2)nc1NC1CC1 [Compound 275]	< 200
COc1cc(Nc2ncc(Br)c(Oc3ccccc3C(=O)N3CCCC3)n2)cc(OC)c1OC [Compound 277]	< 200
FC(F)(F)c1cnc(Nc2cccc3ncccc23)nc1NC1CC1 [Compound 278]	> 2000
COc1cc(Nc2ncc(Br)c(Oc3ccccc3NC(=O)C3CC3)n2)cc(OC)c1OC [Compound 281]	< 200
COc1cc(Nc2ncc(Br)c(Oc3ccccc3CN(C)C)n2)cc(OC)c1OC [Compound 283]	> 2000
O=C1CCc2cc(Nc3ncc(C(=O)O)c(NC4CC4)n3)ccc2N1 [Compound 286]	> 2000
N#Cc1cnc(NC2CC2)nc1Nc1ccc2c(c1)CCC(=O)N2 [Compound 287]	> 2000
COc1cc(Nc2ncc(Br)c(Oc3ccccc3-c3nc(C)co3)n2)cc(OC)c1OC [Compound 290]	> 2000
O=[N+]([O-])c1cnc(NC2CC2)nc1NC1CC1 [Compound 291b]	> 2000
COc1cc(Nc2ncc(Br)c(Nc3ccccc3)n2)cc(OC)c1OC [Compound 293]	< 200
COC(=O)Nc1ccccc1Oc1nc(Nc2cc(OC)c(OC)c(OC)c2)ncc1Br [Compound 296]	< 200
FC(F)(F)c1cnc(Nc2ccc3nc[nH]c3c2)nc1Nc1cc(C2CCC2)[nH]n1 [Compound 297]	< 200

Structure (SMILES)	IC50 [nM]
COc1cc(Nc2ncc(Br)c(Oc3ccccc3C(F)(F)F)n2)cc(OC)c1OC [Compound 299]	< 200
O=C1CCc2cc(Nc3ncc(C(F)(F)F)c(Oc4ccccc4)n3)ccc2N1 [Compound 300a]	> 2000
O=C1CCc2cc(Nc3nc(Oc4ccccc4)ncc3C(F)(F)F)ccc2N1 [Compound 300b]	> 2000
O=C1CCCc2cc(Nc3ncc(C(F)(F)F)c(NC4CC4)n3)ccc21 [Compound 301]	< 200
COc1cc(Nc2ncc(Br)c(Nc3ccccc3CO)n2)cc(OC)c1OC [Compound 303]	< 200
Nc1ccc(Nc2ncc(C(F)(F)F)c(NC3CC3)n2)cc1 [Compound 304a]	< 200
FC(F)(F)c1cnc(Nc2ccc(Nc3ncc(C(F)(F)F)c(NC4CC4)n3)cc2)nc1NC1CC1 [Compound 304b]	> 2000
FC(F)(F)c1cnc(Nc2ccc3c(c2)CCNC3)nc1NC1CC1 [Compound 309]	< 200
CC(C)(C)OC(=O)NCCCNc1nc(Nc2ccc3c(c2)CCC(=O)N3)ncc1C(F)(F)F [Compound 310]	< 200
O=C(C1CC1)N(C(=O)C1CC1)c1ccc(Nc2ncc(C(F)(F)F)c(NC3CC3)n2)cc1 [Compound 311]	< 200
O=C(Nc1ccc(Nc2ncc(C(F)(F)F)c(NC3CC3)n2)cc1)C1CC1 [Compound 312]	< 200
NCCCNc1nc(Nc2ccc3c(c2)CCC(=O)N3)ncc1C(F)(F)F [Compound 313]	< 200
O=C1NC(=O)c2cc(Nc3ncc(C(F)(F)F)c(NC4CC4)n3)ccc21 [Compound 314]	< 200
CNC(=O)CCOc1nc(Nc2cc(OC)c(OC)c(OC)c2)ncc1Br [Compound 316]	< 200
COc1cc(Nc2ncc(Br)c(Nc3ccccc3O)n2)cc(OC)c1OC [Compound 317]	< 200
CNC(=O)c1ccc(OC)cc1Oc1ncc(Br)c(Nc2cc(OC)c(OC)c(OC)c2)n1 [Compound 318b]	> 2000
COc1cc(Nc2ncc(Br)c(Oc3ccccc3NC(=O)C(C)(C)C)n2)cc(OC)c1OC [Compound 320]	> 2000
CC(=O)Nc1ccccc1Oc1nc(Nc2ccc3c(c2)OCO3)ncc1Br [Compound 321a]	> 2000
Nc1ccccc1Oc1nc(Nc2ccc3c(c2)OCO3)ncc1Br [Compound 321b]	< 200
COc1cc(Nc2ncc(Br)c(Oc3ccccc3NC(=O)C(F)(F)F)n2)cc(OC)c1OC [Compound 323]	< 200
COc1cc(Nc2ncc(Br)c(Oc3cccc4cccnc34)n2)cc(OC)c1OC [Compound 324a]	> 2000
CNC(=O)c1ccccc1Oc1nc(Nc2ccc3c(c2)CCC(=O)N3)ncc1Br [Compound 325]	> 2000
Oc1nc(Nc2cnc3[nH]ccc3c2)ncc1C(F)(F)F [Compound 326]	> 2000

Source: patent US20230130766A1 (SALK INSTITUTE FOR BIOLOGICAL STUDIES, priority 2020, published 2023)
